Tested on: perennial ryegrass 96-3047
Assay: glyphosate applied at termination of the Maryland turf trial, plot survival
Type: in vivo, Lolium perenne L.
Conditions: perennial ryegrass 96-3047 plot, Maryland trial 1999, glyphosate at 2-quarts per acre; only plot not killed
Excerpt: In 1999, during the termination of the Maryland trial, 96-3047 was the only plot in the trial that was not killed when glyphosate at the rate of 2-quarts per acre was applied. Survival in the plot was estimated at 30% and plugs were pulled, coded as 99-0089, and 200 plants of 99-0089 were planted in an isolation block in the 1999 Post Falls, Id. nursery.

O=C(O)CNCP(=O)(O)O [glyphosate, N-(phosphonomethyl) glycine]
Survival in the plot: ~30%

— patent US20110191876A1, “GLYPHOSATE TOLERANT PERENNIAL RYEGRASS NAMED 'JACKLIN 501'” (J.R. SIMPLOT COMPANY, priority 2009, published 2011)
